Data: PubChem BioAssay AID2060499 (Molecular Pharmacology Branch, DTP, NCI, 2025)

System: 777334-354-R2-J4-PDC tumor spheroids with HUVEC/MSC, viability
Assay: Anticancer human tumor 777334-354-R2-J4-PDC patient-derived pancreatic adenocarcinoma cell line growth inhibition [GQUAD]
Details: for IC50: curve of first compound; for viability, T/C: stronger effect = lower value; active = viability on the fitted dose curve at most 10% of control; inactive = the rest
Method in brief: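 Multi-cell-type spheroids of tumor cells with HUVEC and mesenchymal stem cells, treated with drug combinations. Concentrations descend in half-log steps from near clinical Cmax, or from 10 microM where Cmax is unknown; viability read-out.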

[1] = second compound 0.0316 µM, first compound 0.0316 µM
[2] = second compound 0.0316 µM, first compound 0.1 µM
[3] = second compound 0.0316 µM, first compound 0.316 µM
[4] = second compound 0.0316 µM, first compound 1 µM
[5] = second compound 0.0316 µM, first compound 3.16 µM
[6] = second compound 0.0316 µM, first compound 10 µM
[7] = second compound 0.1 µM, first compound 0.0316 µM
[8] = second compound 0.1 µM, first compound 0.1 µM
[9] = second compound 0.1 µM, first compound 0.316 µM
[10] = second compound 0.1 µM, first compound 1 µM
[11] = second compound 0.1 µM, first compound 3.16 µM
[12] = second compound 0.1 µM, first compound 10 µM
[13] = second compound 0.316 µM, first compound 0.0316 µM
[14] = second compound 0.316 µM, first compound 0.1 µM
[15] = second compound 0.316 µM, first compound 0.316 µM
[16] = second compound 0.316 µM, first compound 1 µM
[17] = second compound 0.316 µM, first compound 3.16 µM
[18] = second compound 0.316 µM, first compound 10 µM
[19] = second compound 1 µM, first compound 0.0316 µM
[20] = second compound 1 µM, first compound 0.1 µM
[21] = second compound 1 µM, first compound 0.316 µM
[22] = second compound 1 µM, first compound 1 µM
[23] = second compound 1 µM, first compound 3.16 µM
[24] = second compound 1 µM, first compound 10 µM
[25] = second compound 3.16 µM, first compound 0.0316 µM
[26] = second compound 3.16 µM, first compound 0.1 µM
[27] = second compound 3.16 µM, first compound 0.316 µM
[28] = second compound 3.16 µM, first compound 1 µM
[29] = second compound 3.16 µM, first compound 3.16 µM
[30] = second compound 3.16 µM, first compound 10 µM
[31] = second compound 10 µM, first compound 0.0316 µM
[32] = second compound 10 µM, first compound 0.1 µM
[33] = second compound 10 µM, first compound 0.316 µM
[34] = second compound 10 µM, first compound 1 µM
[35] = second compound 10 µM, first compound 3.16 µM
[36] = second compound 10 µM, first compound 10 µM
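Also: spheroids exposed to compounds for 7 days before readout.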

C#Cc1c(F)ccc2cc(O)cc(-c3ncc4c(N5CC6CCC(C5)N6)nc(OCC56CCCN5CC(F)C6)nc4c3F)c12 (stereo unspecified) + CN(C)c1ccc(Nc2c3ccc(NC(=O)CCN4CCCC4)cc3nc3cc(NC(=O)CCN4CCCC4)ccc23)cc1
< 31.6 nM: IC50 (second compound 0.316 µM) | IC50 (second compound 1 µM) | IC50 (second compound 3.16 µM) | IC50 (second compound 10 µM)
36.1 nM: IC50 (second compound 0.1 µM)
inactive: viability, T/C [1] 51% | viability, T/C [2] 38.9% | viability, T/C [3] 29.8% | viability, T/C [4] 31.2% | viability, T/C [5] 30.1% | viability, T/C [6] 22.6% | viability, T/C [7] 52.3% | viability, T/C [8] 38.7% | viability, T/C [9] 34.3% | viability, T/C [10] 28.4% | viability, T/C [11] 29.1% | viability, T/C [12] 21.5% | viability, T/C [13] 46.9% | viability, T/C [14] 35% | viability, T/C [15] 36% | viability, T/C [16] 29% | viability, T/C [17] 26.5% | viability, T/C [18] 22.4% | viability, T/C [19] 37.1% | viability, T/C [20] 38% | viability, T/C [21] 31.4% | viability, T/C [22] 27.8% | viability, T/C [23] 25.4% | viability, T/C [24] 23.7% | viability, T/C [25] 38.6% | viability, T/C [26] 34.4% | viability, T/C [27] 32% | viability, T/C [28] 24.2% | viability, T/C [29] 22.6% | viability, T/C [30] 17.8% | viability, T/C [31] 36.3% | viability, T/C [32] 32.3% | viability, T/C [33] 27.5% | viability, T/C [34] 19.6% | viability, T/C [35] 15.2%
active: viability, T/C [36] 10.3%
33.7 nM: IC50 (second compound 0.0316 µM)

CC(=O)O[C@H]1C(=O)[C@@]2(C)[C@H]([C@H](OC(=O)c3ccccc3)[C@]3(O)C[C@H](OC(=O)[C@H](O)[C@@H](NC(=O)c4ccccc4)c4ccccc4)C(C)=C1C3(C)C)[C@]1(OC(C)=O)CO[C@@H]1C[C@@H]2O + CN(C)c1ccc(Nc2c3ccc(NC(=O)CCN4CCCC4)cc3nc3cc(NC(=O)CCN4CCCC4)ccc23)cc1
inactive: viability, T/C [1] 76.8% | viability, T/C [2] 57.2% | viability, T/C [3] 48.6% | viability, T/C [4] 39.2% | viability, T/C [5] 43.2% | viability, T/C [6] 46.2% | viability, T/C [7] 72.7% | viability, T/C [8] 58.1% | viability, T/C [9] 46.5% | viability, T/C [10] 38.9% | viability, T/C [11] 49.7% | viability, T/C [12] 48.5% | viability, T/C [13] 73.9% | viability, T/C [14] 54.4% | viability, T/C [15] 47% | viability, T/C [16] 41.2% | viability, T/C [17] 49.6% | viability, T/C [18] 42% | viability, T/C [19] 59.2% | viability, T/C [20] 50.6% | viability, T/C [21] 40.5% | viability, T/C [22] 39.3% | viability, T/C [23] 39% | viability, T/C [24] 35.1% | viability, T/C [25] 65.8% | viability, T/C [26] 51% | viability, T/C [27] 38.4% | viability, T/C [28] 45.6% | viability, T/C [29] 44.2% | viability, T/C [30] 39.4% | viability, T/C [31] 70% | viability, T/C [32] 51.8% | viability, T/C [33] 51.2% | viability, T/C [34] 46.5% | viability, T/C [35] 41.8% | viability, T/C [36] 46.3%
93.3 nM: IC50 (second compound 3.16 µM)
220 nM: IC50 (second compound 0.1 µM)
207 nM: IC50 (second compound 10 µM)
190 nM: IC50 (second compound 0.316 µM)
89.8 nM: IC50 (second compound 1 µM)
222 nM: IC50 (second compound 0.0316 µM)

CCCS(=O)(=O)Nc1ccc(F)c(C(=O)c2c[nH]c3ncc(-c4ccc(Cl)cc4)cc23)c1F + CN(C)c1ccc(Nc2c3ccc(NC(=O)CCN4CCCC4)cc3nc3cc(NC(=O)CCN4CCCC4)ccc23)cc1
8420 nM: IC50 (second compound 0.1 µM) | IC50 (second compound 3.16 µM)
6420 nM: IC50 (second compound 10 µM)
8170 nM: IC50 (second compound 0.0316 µM)
8400 nM: IC50 (second compound 1 µM)
8710 nM: IC50 (second compound 0.316 µM)
inactive: viability, T/C [1] 93% | viability, T/C [2] 97% | viability, T/C [3] 115% | viability, T/C [4] 115% | viability, T/C [5] 116% | viability, T/C [6] 37.6% | viability, T/C [7] 92.5% | viability, T/C [8] 105% | viability, T/C [9] 127% | viability, T/C [10] 128% | viability, T/C [11] 151% | viability, T/C [12] 37.6% | viability, T/C [13] 101% | viability, T/C [14] 98.5% | viability, T/C [15] 130% | viability, T/C [16] 117% | viability, T/C [17] 152% | viability, T/C [18] 40.5% | viability, T/C [19] 92.4% | viability, T/C [20] 98.6% | viability, T/C [21] 107% | viability, T/C [22] 124% | viability, T/C [23] 137% | viability, T/C [24] 39% | viability, T/C [25] 81.6% | viability, T/C [26] 107% | viability, T/C [27] 97.6% | viability, T/C [28] 122% | viability, T/C [29] 131% | viability, T/C [30] 39.8% | viability, T/C [31] 88% | viability, T/C [32] 87% | viability, T/C [33] 87.9% | viability, T/C [34] 93.6% | viability, T/C [35] 81.1% | viability, T/C [36] 30.1%
